According to article PMC4171615, “Discovery of selective inhibitors of Glutaminase-2, which inhibit mTORC1, activate autophagy and inhibit proliferation in cancer cells” (Oncotarget, 2014):

Biological target: T1, KGA_H519Q (Homo sapiens, UniProt O94925, H519Q)
T1 construct: a KGA cDNA fragment of 1644 bp (residues Leu123-Leu669); His-tag (N); made in house; host or cells: Escherichia coli
T1 sequence (O94925 123-669 H519Q): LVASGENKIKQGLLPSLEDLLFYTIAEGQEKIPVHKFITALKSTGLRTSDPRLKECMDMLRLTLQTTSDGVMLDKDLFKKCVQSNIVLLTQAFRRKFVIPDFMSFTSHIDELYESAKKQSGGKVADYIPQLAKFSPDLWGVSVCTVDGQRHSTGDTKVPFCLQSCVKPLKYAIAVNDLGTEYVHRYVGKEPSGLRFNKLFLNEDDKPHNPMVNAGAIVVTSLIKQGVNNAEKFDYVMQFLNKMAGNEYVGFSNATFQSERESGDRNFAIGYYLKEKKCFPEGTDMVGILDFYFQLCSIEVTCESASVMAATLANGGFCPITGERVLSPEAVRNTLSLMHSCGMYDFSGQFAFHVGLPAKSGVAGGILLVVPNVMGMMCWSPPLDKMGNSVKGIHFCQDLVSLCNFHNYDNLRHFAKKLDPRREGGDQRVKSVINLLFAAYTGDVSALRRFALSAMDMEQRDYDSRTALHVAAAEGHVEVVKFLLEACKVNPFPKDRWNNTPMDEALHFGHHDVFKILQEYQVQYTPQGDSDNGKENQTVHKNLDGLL
Experiment: Glutaminase activity assay, KGA mutant H519Q
Assay type: biochemical
Experimental: Human glutaminase activity was measured using a two-step assay as described previously. A microtiter assay format was used to facilitate the collection of multiple data points. Typically, 10 μl of compound, which was dissolved in DMSO, was added to 80 μl of an initial assay mix (0.1 mM hKGA, 0.2 mM EDTA and 50 mM Tris/acetate, pH 8.6). Samples were incubated at 25°C for 10 min and then 10 μl of 200 mM glutamine were added to the reaction mix. After adding glutamine, the reactions were incubated at 37°C for 60 min and then quenched by the addition of 10 μl of 0.6 M HCl. Subsequently, 100 μl of a second reaction mixture (3.7 units of purified bovine liver glutamate dehydrogenase, 160 mM Tris/acetate [pH 9.4], 400 mM hydrazine, 5 mM ADP and 2 mM NAD^+) was added to the stopped first reaction mixture and incubated for 30 min at 25°C. The absorbance at 340 nm was measured using a Wallac Victor2V plate reader (PerkinElmer), fitted with a 340 nm excitation filter. Sample absorbance was measured against a blank, containing no human glutaminase.
Site-directed mutagenesis was performed on the pET28a(+)-GAB or pET28a(+)-KGA plasmids using PfuUltra II Fusion HS DNA polymerase (Agilent Technologies) to create the GAB and KGA mutants. […] The sequence alignment was compared with crystal structure of the GAC (PDB code: 3UO9) and the resulting model of GAB was analyzed using the Swiss-PDB server. […]

IC50: 1670 ± 120 nM
Compound: CCCCCCCCCCCCCC(CC1=CC(=O)C=C(OC)C1=O)OC(C)=O (stereo not shown) [AV-1]
